A compilation of properties of binary mixtures (doi:10.1021/je950317s)

Experiment: excess molar enthalpy (molar enthalpy of mixing); xn = mol fraction of the nth substance listed
Details: 293.15 K, 100 kPa

Cl/C=C/Cl + CCCCCCCCCCCC
Details | excess molar enthalpy [kcal/mol]
x1 = 0.086 | 0.0404
x1 = 0.1183 | 0.05
x1 = 0.1952 | 0.0913
x1 = 0.2658 | 0.115
x1 = 0.354 | 0.151
x1 = 0.4354 | 0.175
x1 = 0.5034 | 0.19
x1 = 0.5297 | 0.19
x1 = 0.5654 | 0.193
x1 = 0.5792 | 0.19
x1 = 0.637 | 0.19
x1 = 0.6708 | 0.187
x1 = 0.6712 | 0.19
x1 = 0.6857 | 0.185
x1 = 0.7145 | 0.182
x1 = 0.7213 | 0.179
x1 = 0.7547 | 0.173
x1 = 0.7676 | 0.166
x1 = 0.8276 | 0.14
x1 = 0.8799 | 0.107
x1 = 0.9289 | 0.0707
x1 = 0.9652 | 0.038

Cl/C=C\Cl + CCCCCCCCCCCC
Details | excess molar enthalpy [kcal/mol]
x1 = 0.2693 | 0.192
x1 = 0.4431 | 0.283
x1 = 0.6609 | 0.281
x1 = 0.7922 | 0.232
x1 = 0.851 | 0.191
x1 = 0.9026 | 0.139
x1 = 0.9588 | 0.0679

Cl/C=C/Cl + CCCCCCCCCCCCCC
Details | excess molar enthalpy [kcal/mol]
x1 = 0.1129 | 0.05
x1 = 0.1792 | 0.0877
x1 = 0.3112 | 0.14
x1 = 0.3404 | 0.153
x1 = 0.3809 | 0.165
x1 = 0.4345 | 0.181
x1 = 0.4786 | 0.193
x1 = 0.5019 | 0.2
x1 = 0.535 | 0.201
x1 = 0.5634 | 0.205
x1 = 0.5851 | 0.204
x1 = 0.6008 | 0.207
x1 = 0.6211 | 0.209
x1 = 0.6352 | 0.208
x1 = 0.6675 | 0.204
x1 = 0.6789 | 0.202
x1 = 0.7008 | 0.199
x1 = 0.7106 | 0.198
x1 = 0.7314 | 0.191
x1 = 0.747 | 0.188
x1 = 0.757 | 0.185
x1 = 0.7762 | 0.178
x1 = 0.8541 | 0.141
x1 = 0.8757 | 0.127
x1 = 0.9005 | 0.108
x1 = 0.9374 | 0.0746

Cl/C=C\Cl + CCCCCCCCCCCCCC
Details | excess molar enthalpy [kcal/mol]
x1 = 0.3157 | 0.229
x1 = 0.5126 | 0.327
x1 = 0.638 | 0.336
x1 = 0.7787 | 0.288
x1 = 0.8831 | 0.194
x1 = 0.923 | 0.139
x1 = 0.969 | 0.0657

Cl/C=C/Cl + CCCCCCCCCCCCCCCC
Details | excess molar enthalpy [kcal/mol]
x1 = 0.0735 | 0.0351
x1 = 0.1873 | 0.0944
x1 = 0.3532 | 0.167
x1 = 0.4326 | 0.192
x1 = 0.5287 | 0.212
x1 = 0.5819 | 0.223
x1 = 0.6155 | 0.223
x1 = 0.6514 | 0.22
x1 = 0.7106 | 0.214
x1 = 0.7294 | 0.208
x1 = 0.7428 | 0.205
x1 = 0.7698 | 0.197
x1 = 0.7846 | 0.194
x1 = 0.8008 | 0.184
x1 = 0.8578 | 0.152
x1 = 0.8776 | 0.137
x1 = 0.8951 | 0.125
x1 = 0.9485 | 0.071
x1 = 0.9795 | 0.0306

Cl/C=C\Cl + CCCCCCCCCCCCCCCC
Details | excess molar enthalpy [kcal/mol]
x1 = 0.5093 | 0.332
x1 = 0.6348 | 0.36
x1 = 0.714 | 0.353
x1 = 0.7791 | 0.326
x1 = 0.8308 | 0.282
x1 = 0.8823 | 0.228
x1 = 0.9221 | 0.168
x1 = 0.9676 | 0.0798
